This is an account of results in ChEMBL document CHEMBL3507680, “University of Dundee, Gates Library screen for HepG2 cell viability”.

A short description of this data set: Human HepG2 cell viability assay in 384 well format. The data set is classed as toxicity, cell-based. Also noted: dose 125 nL, time 70.5 hour; concentration not given beside the values. Particulars: HepG2 cells, read-out: Inhibition.
`O=C(O)c1csc(S(=O)(=O)Nc2c(F)cccc2-n2cccn2)c1`: the cytotoxicity at 70.5 h is 4.64%. With `COc1c(C)cnc(CSc2nnc(NC3CC3)s2)c1C` the figure was -1.65%; with `O=C1CCCN1Cc1nnc(SCc2ccc3c(c2)CCC3)o1`, 9.34%. On to `Cc1ccc(C2COCCN2C(=O)c2cccc(N(C)C)c2)o1` (stereo unspecified), for which the cytotoxicity at 70.5 h is -7.51%. With `CCN(CC1CN(Cc2cccnc2)CCO1)c1cccnn1` (stereo unspecified) the figure was -0.418%; with `Cc1ccc(C2COCCN2C(=O)c2ccc(C)s2)o1` (stereo unspecified), -9.04%. With `Cc1ccc(C2COCCN2C(=O)c2ccsc2)o1` (stereo unspecified) the figure was -8.5%.

Regarding `CCN(CC1CN(Cc2nc(C3CC3)no2)CCO1)c1cccnn1` (stereo unspecified), the cytotoxicity at 70.5 h was -16.6%. For `COc1ccc(C(=O)N(CCC#N)Cc2ccccn2)cc1`, the cytotoxicity at 70.5 h is -2.45%.

Take `Cc1n[nH]c(C)c1C1COCCN1c1ncnc2sccc12` (stereo unspecified): the cytotoxicity at 70.5 h is -13%.

As for `CCN(CC1CN(Cc2ccccn2)CCO1)c1cccnn1` (stereo unspecified), the cytotoxicity at 70.5 h is -9.99%.

Take `CCN(CC1CN(Cc2nccn2CC)CCO1)c1cccnn1` (stereo unspecified): the cytotoxicity at 70.5 h was -9.34%. As for `CCc1ncc2c(n1)CN(Cc1cccc3c1OCCO3)CC2`, the cytotoxicity at 70.5 h was -3.18%. In the case of `CCN1CCC(NC(=O)NC2CCOc3ccc(Br)cc32)CC1` (stereo unspecified), the cytotoxicity at 70.5 h was -3.03%. On to `Cc1noc(C)c1CN(C)C(=O)NCCOc1ccc(F)cc1F`, for which the cytotoxicity at 70.5 h was -6.66%. With `COC(=O)NCC(=O)NCC(C)(C)c1cccc(Br)c1` the figure was -0.269%; with `COCC(=O)N1CCCC1c1cccc(C)c1C` (stereo unspecified), 4.58%; with `CC(=O)N(Cc1c(F)cccc1F)C1CCCC1`, -6.67%. The same measure for `CCc1nsc(NC2CC(=O)N(C(C)(C)C)C2)n1` (stereo unspecified): -8.26%. The same measure for `CC1CCCCN1C(=O)c1ccc(Br)s1` (stereo unspecified): -5.12%. On to `O=C(C[S+]([O-])Cc1ccccc1F)N1CCc2sccc2C1` (stereo unspecified), for which the cytotoxicity at 70.5 h is -7.21%. With `O=C(C[S+]([O-])Cc1c(Cl)cccc1Cl)N1CCc2sccc2C1` (stereo unspecified) the figure was -7.37%; with `O=C(C[S+]([O-])Cc1ccc(F)cc1)N1CCc2sccc2C1` (stereo unspecified), -9.59%. In the case of `Cc1cc(N)nc(SC2CCN(c3ccccc3F)C2=O)n1` (stereo unspecified), the cytotoxicity at 70.5 h came out at 19%. For the molecule `O=c1c2cccnc2cnn1CC(O)c1ccc(F)c(F)c1` (stereo unspecified), the cytotoxicity at 70.5 h was -6.63%.

`O=c1c2cccnc2cnn1CC(O)c1ccc(Br)cc1` (stereo unspecified): the cytotoxicity at 70.5 h came out at 12%.

With `Cc1cc(N)nc(SC2CCN(c3ccccc3)C2=O)n1` (stereo unspecified), the cytotoxicity at 70.5 h is -2.2%.

As for `CC(C)c1nnc(NC(=O)c2cccc(OCC(F)(F)F)n2)[nH]1`, the cytotoxicity at 70.5 h is -3.15%.

As to `O=C(Nc1cc(C2CCOCC2)[nH]n1)c1cscn1`, the cytotoxicity at 70.5 h is -7.61%.

With `CN(C(=O)CCOc1ccccc1)C1CCN(CC2CCOC2)CC1` (stereo unspecified), the cytotoxicity at 70.5 h was -8.86%. Regarding `Cc1n[nH]c(C)c1NC(=O)c1cccc(OCC(F)(F)F)n1`, the cytotoxicity at 70.5 h is -10.8%. Consider `Cc1ccoc1C(=O)NCCOc1ccc(C(F)(F)F)cn1`, for which the cytotoxicity at 70.5 h is 18.3%. With `CN1CCCN(S(C)(=O)=O)c2cc(F)ccc21` the figure was -3.48%. With `Cc1nnc2ccc(NCC3(N4CCCCC4)CCOCC3)nn12` the figure was -4.4%; with `CCN(Cc1ccoc1)C(=O)c1cc(S(N)(=O)=O)c(C)o1`, -5.31%; with `CC(NCc1cnc(C2CCC2)s1)c1ccc(-n2cncn2)cc1` (stereo unspecified), -5.3%. Regarding `CC1C(=O)Nc2cccnc2N1S(=O)(=O)c1cc(F)cc(F)c1` (stereo unspecified), the cytotoxicity at 70.5 h turned out to be 16%.

Take `Cc1nc(C)c(C(C)NC(=O)NCCNc2cccc(F)c2C#N)s1` (stereo unspecified): the cytotoxicity at 70.5 h is -8.61%.

`CCN(Cc1ccoc1)C(=O)c1cc2c(c(S(N)(=O)=O)c1)CCC2`: the cytotoxicity at 70.5 h is -8.02%. Turning to `CC(NCc1cnc(C2CCC2)s1)c1cccc(-n2cccn2)c1` (stereo unspecified), the cytotoxicity at 70.5 h was 16.3%.

As to `CC(NCc1cnc(C2CCC2)s1)c1cccc(-n2ccnc2)c1` (stereo unspecified), the cytotoxicity at 70.5 h is -5.22%.
